The source of these data is paper PMC10045534, “Preparation and Evaluation of 6-Gingerol Derivatives as Novel Antioxidants and Antiplatelet Agents” (Antioxidants, 2023).

Some results are limits rather than exact numbers.

Test [1] has as its target T1, COX-1 enzyme (Ovis aries, UniProt P05979).
T1 construct: purchased BioVision (via VWR International Kft.) K548-100
T1 sequence (P05979 25-600): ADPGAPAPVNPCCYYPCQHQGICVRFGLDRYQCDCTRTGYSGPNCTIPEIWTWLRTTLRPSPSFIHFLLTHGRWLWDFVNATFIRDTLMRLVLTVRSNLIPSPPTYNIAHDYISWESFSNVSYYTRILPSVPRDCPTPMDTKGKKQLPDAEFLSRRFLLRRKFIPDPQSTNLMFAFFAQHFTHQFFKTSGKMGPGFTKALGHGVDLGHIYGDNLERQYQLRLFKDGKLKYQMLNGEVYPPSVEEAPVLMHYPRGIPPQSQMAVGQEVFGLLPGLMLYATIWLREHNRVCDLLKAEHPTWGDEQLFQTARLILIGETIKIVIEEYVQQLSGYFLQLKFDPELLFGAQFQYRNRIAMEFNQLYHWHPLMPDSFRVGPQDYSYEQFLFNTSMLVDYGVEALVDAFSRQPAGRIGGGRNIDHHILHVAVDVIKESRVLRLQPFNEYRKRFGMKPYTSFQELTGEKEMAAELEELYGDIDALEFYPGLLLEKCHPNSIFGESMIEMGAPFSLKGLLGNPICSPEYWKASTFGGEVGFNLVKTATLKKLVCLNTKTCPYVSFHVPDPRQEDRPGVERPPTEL
Put plainly: COX-1 inhibitor screening kit, fluorometric (BioVision K548-100). The test is classed as biochemical. Particulars: for LLE(COX-1): LLE = pIC50 − logPpredicted; for IC50: mean ± SEM, n = 2. On the procedure:
COX-1 inhibitory activity was tested based on the fluorometric method as described in BioVision’s COX-1 inhibitor screening kit leafkit (K548-100, BioVision, CA, USA). Sample solutions were prepared by dissolving in DMSO and subsequently buffer, to get desired concentrations. In a 96-well white plate (655101, F-bottom, Grenier bio-one, Germany), 80 µL reaction mix (containing 76 µL assay buffer, 1 µL COX Probe, 2 µL COX cofactor, and 1 µL COX-1 enzyme) was added to 10 µL sample solution, DMSO and assay buffer to get test wells assigned for sample screen (S), negative control (N) and blank, respectively. An aliquot of 10 µL of arachidonic/NaOH solution was added to each well using a multi-channel pipette to initiate the reaction at the same time, and the fluorescence of each well was measured kinetically at Ex/Em 550/610 nm, at 25OC for 10 min using a FluoStar Optima plate reader (BMG Labtech, Ortenberg, Germany). The COX inhibitory activity of SC560, a standard inhibitor, was also determined.
The change in fluorescence between two points, T1 and T2 were determined, and relative inhibition was calculated according to the following equation:% Inhibition = (ΔN − ΔS)/ΔN × 100 (1) where N is the absorbance of the negative control, and S is that of the sample.
Dose-effect studies on the compounds were used to determine the concentration that inhibits 50% of the enzyme activity. The sigmoidal dose–response model was obtained by using the software GraphPad Prism 8.0 (La Jolla, CA, USA), and these were used to determine the IC50 values of the compounds.

The nature of test [2]: DPPH free radical scavenging assay. Particulars: for IC50: 30 min, room temperature, MeOH, mean ± SEM, n = 2, read-out: DDPH IC50. As for the experimental part:
All bioactivity data processing, including the calculation of inhibition percentage, mean and corresponding standard error of the mean (SEM), and IC50 values, was performed by GraphPad Prism 8.0 (La Jolla, CA, USA). IC50 values were calculated from the sigmoidal dose–response curves obtained by the log(inhibitor) vs. response and variable slope (DPPH assay) or the log(inhibitor) vs. normalised response and variable slope nonlinear regression model. On the results obtained, no statistical evaluation was performed; instead, differences greater than two-fold were considered relevant. Plotting of the antiplatelet and COX-1 inhibitory IC50 values and the linear regression of the data was performed by Microsoft Excel.
DPPH (1,10-diphenyl-2-picrylhydrazyl) was purchased from Thermo Fisher Scientific. DPPH free radical scavenging assay was performed with some modifications based on the method by previous study. Briefly, in a 96-well microplate, microdilutions of samples (100 µL, starting from 200 µM in HPLC grade MeOH) were made and 100 µL of DPPH reagent (100 µM in MeOH) was added. After 30 min at room temperature in the dark, the absorbance was measured at 550 nm using a FluoStar Optima plate reader (software version 2.20R2, BMG Labtech Ortenberg, Germany). For the blank control, MeOH was used. The scavenging activity was calculated as Inhibition (%) = (A0 − As)/A0 × 100, and IC50 values were calculated by GraphPad Prism 8.0 (La Jolla, CA, USA).
In general terms: Loss of DPPH colour is used to gauge radical scavenging.

Test [3] is described as follows: Oxygen radical absorbance capacity (ORAC). Particulars: 1 µM sample; mean ± SEM, n = 3. As for the experimental part:
AAPH ((2,20-Azobis(2-methyl-propionamidine) dihydrochloride) free radical and Trolox standard were purchased from Sigma-Aldrich Hungary. Fluorescein was purchased from Fluka Analytical, Tokyo, Japan. ORAC assay was carried out In a 96-well microplate based on the method from previous study. Briefly, 20 µL of the samples (1 µM final concentration, dissolved in phosphate buffer, pH = 7.4, containing 1% MeOH) were mixed with 60 µL of AAPH (12 mM final concentration, dissolved in phosphate buffer, pH = 7.4) and 120 µL of fluorescein solution (70 nM final concentration, dissolved in phosphate buffer), then the fluorescence was measured (excitation at λ = 485 nm, and emission at λ = 520 nm) through 3 h with 1.5-min cycle intervals with a BMG Labtech FluoStar Optima plate-reader. All experiments were carried out in triplicate, and Trolox was used as standard. The antioxidant capacity is expressed as Trolox Equivalent (TE), as calculated using GraphPad Prism 8.0 (La Jolla, CA, USA).

Test [4] is described as follows: Peroxynitrite scavenging (pyrogallol red). Particulars: % inhibition at 500 µM; mean ± SEM, n = 3. On the procedure:
Peroxynitrite was synthesised by a continuous flow system using syringe pumps as published previously. Briefly, an acidic solution of hydrogen peroxide (0.6 M H2O2, 0.7 M HCl) was pumped to a junction alongside of sodium nitrite solution (0.6 M) at a flow rate of 1.5 mL/min. After passing 10 cm of tubing, it was mixed with a sodium hydroxide solution (1.5 M), also pumped at 1.5 mL/min. The resulting peroxynitrite solution was a bright yellow colour. The tubing around the reaction was submerged in ice. The concentration of the solution was determined by spectrophotometry and was adjusted to 30 mM with 0.1 M NaOH solution.
In a 96-well microplate 245 µL of pyrogallol red (100 µM final concentration, dissolved in 0.1 M glycine buffer) was mixed with 50 µL of sample (0.5 mM final concentration, dissolved in DMSO) and 5 µL ONOO^– solution (500 µM final concentration, freshly prepared). After mixing and keeping it at room temperature for 30 min the absorbance was measured at 550 nm using a FluoStar Optima plate reader (software version 2.20R2, BMG Labtech, Ortenberg, Germany).

As for `CCCCC[C@H](O)CC(=O)CCc1ccc(O)c(OC)c1` [Compound 1, (S)-5-hydroxy-1-(4-hydroxy-3-methoxyphenyl)decan-3-one], in test [1], the “LLE(COX-1)” value is reported as 1.30 and 62.5 ± 23.8 µM corresponded to half-maximal inhibition (IC50). Also, in test [2], the half-inhibitory concentration (IC50) amounted to 8.92 ± 0.46 µM. For the same compound, in test [3], the “ORAC TE” value is 1.30 ± 0.04 Trolox equivalents (TE). The “ONOO^– Scavenging (%)” value in test [4] is reported as less than 5.0%.
As for `CCCCC/C=C/C(=O)CCc1ccc(O)c(OC)c1` [Compound 2, 6-shogaol], in test [1], the “LLE(COX-1)” value is on record as 0.81 and the IC50 came out at 9.8 ± 0.6 µM. For the same compound, the half-maximal inhibitory concentration (IC50) in test [2] was determined as 11.4 ± 0.49 µM. The “ORAC TE” value in test [3] is 1.10 ± 0.03 Trolox equivalents (TE). Moreover, the “ONOO^– Scavenging (%)” value in test [4] is recorded as less than 5.0%.
For the compound `CCCCCCCC(=O)CCc1ccc(O)c(OC)c1` [Compound 3, 4,5-dihydro-6-shogaol], the “LLE(COX-1)” value in test [1] is 1.26. For the same compound, the values for the IC50 in test [1] and in test [2] were 4.4 ± 0.2 µM and 9.43 ± 0.16 µM, respectively. For the same compound, the “ORAC TE” value in test [3] is 1.36 ± 0.02 Trolox equivalents (TE). In addition, the “ONOO^– Scavenging (%)” value in test [4] is less than 5.0%.
Take `CCCCCCCC(CCc1ccc(O)c(OC)c1)=NO` [Compound 4, 1-(4-hydroxy-3-methoxyphenyl)decan-3-one oxime]: in test [1], the “LLE(COX-1)” value is on record as 0.48 and the IC50 turned out to be 5.2 ± 0.3 µM. In test [2], the IC50 was determined as 8.56 ± 0.07 µM. Further, the “ORAC TE” value in test [3] is recorded as 0.47 ± 0.09 Trolox equivalents (TE). Also, the “ONOO^– Scavenging (%)” value in test [4] is on record as less than 5.0%.
For `CCCCC[C@H](O)C[C@H](O)CCc1ccc(O)c(OC)c1` [Compound 5, (3R,5S)-1-(4-hydroxy-3-methoxyphenyl)decane-3,5-diol] the same measures were 1.27, 54.3 ± 6.5 µM, 6.51 ± 0.28 µM, 2.30 ± 0.05 Trolox equivalents (TE) and less than 5.0%.
Consider `CCCCC[C@H](O)C[C@@H](O)CCc1ccc(O)c(OC)c1` [Compound 6, (3S,5S)-1-(4-hydroxy-3-methoxyphenyl)decane-3,5-diol], for which the “LLE(COX-1)” value in test [1] is 1.12. Moreover, the values for the IC50 in test [1] and in test [2] were 76.2 ± 0.3 µM and 13.82 ± 0.03 µM, respectively. Also, the “ORAC TE” value in test [3] is 1.12 ± 0.03 Trolox equivalents (TE). Further, the “ONOO^– Scavenging (%)” value in test [4] was less than 5.0%.
As to `CCCCCc1cc(CCc2ccc(O)c(OC)c2)[nH]n1` [Compound 14, 2-methoxy-4-(2-(3-pentyl-1H-pyrazol-5-yl)ethyl)phenol], in test [1], the “LLE(COX-1)” value was 0.74 and half-maximal inhibition (IC50) was put at 3.6 ± 0.2 µM. Further, in test [2], the IC50 turned out to be 16.2 ± 0.46 µM. Further, the “ORAC TE” value in test [3] is given as 0.44 ± 0.07 Trolox equivalents (TE). Also, the “ONOO^– Scavenging (%)” value in test [4] is less than 5.0%.
The compound `CCCCCc1cc(CCc2ccc(O)cc2)[nH]n1` [Compound 15, 4-(2-(3-pentyl-1H-pyrazol-5-yl)ethyl)phenol] yielded an IC50 in test [1] of more than 200 µM. In addition, in test [2], the “DPPH scavenging activity (in words)” value was “inactive” and the half-inhibitory concentration (IC50) was more than 200 µM. The “ORAC TE” value in test [3] is 1.00 ± 0.02 Trolox equivalents (TE). For the same compound, the “ONOO^– Scavenging (%)” value in test [4] was less than 5.0%.
`CCCCCc1cc(/C=C/c2ccc(O)cc2)[nH]n1` [Compound 16, (E)-4-(2-(3-pentyl-1H-pyrazol-5-yl)vinyl)phenol]: in test [1], the “LLE(COX-1)” value was −0.04 and the half-maximal inhibitory concentration (IC50) is 17.5 ± 0.1 µM. In addition, the IC50 in test [2] was found to be 19 ± 1.63 µM. Also, the “ORAC TE” value in test [3] was 2.88 ± 0.16 Trolox equivalents (TE). In addition, the “ONOO^– Scavenging (%)” value in test [4] is given as less than 5.0%.
For `CCCCCc1cc(/C=C/c2ccc(O)c(OC)c2)on1` [Compound 17, (E)-2-methoxy-4-(2-(3-pentylisoxazol-5-yl)vinyl)phenol], in test [1], the “LLE(COX-1)” value was 0.83. Moreover, the 50% inhibitory concentration (IC50) in test [1] is 5.85 ± 0.04 µM; in test [2], 8.13 ± 0.21 µM. Besides, the “ORAC TE” value in test [3] is recorded as 0.77 ± 0.20 Trolox equivalents (TE). Further, in test [4], the “ONOO^– Scavenging (%)” value amounted to 38.40 ± 3.05%.
As to `CCCCCc1cc(/C=C/c2ccc(O)cc2)on1` [Compound 18, (E)-4-(2-(3-pentylisoxazol-5-yl)vinyl)phenol], the IC50 in test [1] is more than 200 µM; in test [2] it was more than 100 µM. The “DPPH scavenging activity (in words)” value in test [2] was “inactive”. Further, in test [3], the “ORAC TE” value is listed as 1.76 ± 0.06 Trolox equivalents (TE). For the same compound, the “ONOO^– Scavenging (%)” value in test [4] turned out to be 5.64 ± 1.31%.
For `CCCCCCCNC(=O)CCc1ccc(O)c(OC)c1` [Compound 22], the IC50 is more than 100 µM in test [1] and 14.1 ± 0.21 µM in test [2]. Moreover, the “ORAC TE” value in test [3] is 1.62 ± 0.004 Trolox equivalents (TE). In test [4], the “ONOO^– Scavenging (%)” value is less than 5.0%.

By IC50 is commonly meant the point on the concentration scale where inhibition reaches its midpoint.
